Assay results: ChEMBL document CHEMBL1151297, “Studies of the Thymelaeaceae II. Antineoplastic principles of Gnidia kraussiana” (1984)
Values after ≈ are worked out from the molar mass of the structure shown.

tested on: P388; assay: Cytotoxicity against mouse P388 cells; type: functional; conditions: read-out: ED50 (the source's name)

| SMILES | EC50 |
| --- | --- |
| C=C(C)[C@]12C[C@@H](C)[C@@]34O[C@@]5(CCCCCCC[C@H](C)[C@H]6[C@H](C)[C@H](OC(=O)c7ccccc7)[C@@](O)([C@H](O)[C@@]7(CO)O[C@H]7[C@@H]3[C@H]1O5)[C@@H]64)O2 | 2.3 ng/mL (≈ 3.6 nM) |
| C=C(C)[C@]12C[C@@H](C)[C@@]34O[C@](/C=C/C=C/CCCCC)(O[C@@H]1[C@@H]3[C@@H]1O[C@]1(CO)[C@@H](O)[C@]1(O)C(=O)C(C)=C[C@H]14)O2 [EXCOECARIA TOXIN] | 0.24 ng/mL (≈ 0.454 nM) |
| C=C(C)[C@@]12O[C@@]3(/C=C/C=C/CCCCC)O[C@@H]1[C@@H]1[C@@H]4O[C@]4(CO)[C@@H](O)[C@]4(O)C(=O)C(C)=C[C@H]4[C@@]1(O3)[C@H](C)[C@H]2OC(=O)c1ccccc1 [GNIDILATIDIN] | < 1 ng/mL |
| C=C(C)[C@@]12O[C@@]3(CCCCCCCCC)O[C@@H]1[C@@H]1[C@@H]4O[C@]4(CO)[C@@H](O)[C@]4(O)C(=O)C(C)=C[C@H]4[C@@]1(O3)[C@H](C)[C@H]2OC(=O)c1ccccc1 [GNIDILATIN] | < 1 ng/mL |
| C=C(C)[C@@]12C[C@@H](C)[C@@]34OC5(O[C@@H]1[C@@H]3[C@@H]1O[C@]1(CO)[C@@H](O)[C@@]1(O)[C@H]4[C@H]([C@H](C)[C@@H]1OC(=O)c1ccccc1)[C@H](C)CCCCCC[C@H]5O)O2 [KRAUSSIANIN] | 0.78 ng/mL (≈ 1.19 nM) |

tested on: P388; assay: In vivo antitumor activity against mouse P388 cells at 30 ug/kg; type: functional; conditions: not given

| SMILES | T/C |
| --- | --- |
| C=C(C)[C@@]12C[C@@H](C)[C@@]34OC5(O[C@@H]1[C@@H]3[C@@H]1O[C@]1(CO)[C@@H](O)[C@@]1(O)[C@H]4[C@H]([C@H](C)[C@@H]1OC(=O)c1ccccc1)[C@H](C)CCCCCC[C@H]5O)O2 [KRAUSSIANIN] | 152% |
